Where two headings read alike, the source gives them in different places.

One assay concerns the target MEK1 activated ERK1 (Homo sapiens (Human), UniProt P27361). Description: Omnia continuous-read kinase assay for potency against MEK1 activated ERK1. It is filed as biochemical. An outline of the steps:
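Apparent IC50 came from initial reaction slopes (RFU vs time) plotted against log inhibitor with a variable-slope fit. Reactions were started with ERK1 (4 nM final) added to 50 μM ATP, roughly at its appKM, and 10 μM Sox-conjugated ST17 peptide in 20 mM Tris pH 7.5, 5 mM MgCl2. Fluorescence was monitored every 71 seconds.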

For a further assay, the target named is Erk1 (Homo sapiens (Human), UniProt P27361). The experiment in a line: Protein Mass Modification Assay (intact protein MALDI). It is filed as binding. An outline of the steps:
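Percent covalent modification comes from the intact-protein MALDI centroid mass shift, treated versus control, divided by compound MW. Before analysis, human Erk1 was exposed to compound at 10-fold excess over protein for 60 min at room temperature.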

[1] abbreviates: MEK1 activated ERK1, WT, ATP at KM.
Setting [2] is: read-out: ERK1 Omnia WT ATP KM IC50.

Erk1, sequence (P27361 whole entry, looked up): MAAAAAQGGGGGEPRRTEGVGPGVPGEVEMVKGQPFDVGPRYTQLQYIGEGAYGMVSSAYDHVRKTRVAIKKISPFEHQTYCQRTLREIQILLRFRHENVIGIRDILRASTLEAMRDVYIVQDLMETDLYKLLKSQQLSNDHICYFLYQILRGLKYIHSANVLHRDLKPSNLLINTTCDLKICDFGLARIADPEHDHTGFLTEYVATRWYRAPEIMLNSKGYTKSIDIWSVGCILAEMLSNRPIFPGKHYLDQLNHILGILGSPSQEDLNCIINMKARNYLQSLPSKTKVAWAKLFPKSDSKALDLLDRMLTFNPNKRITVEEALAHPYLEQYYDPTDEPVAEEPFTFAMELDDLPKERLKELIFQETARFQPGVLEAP
MEK1 activated ERK1, sequence (P27361 whole entry): as the sequence (P27361 whole entry, looked up) above

For orientation: IC50 means the concentration that gives 50% inhibition. As to `C#CCOc1cc(C)c(Nc2ncc(C(F)(F)F)c(Nc3ccc(C)cc3NC(=O)C=C)n2)cc1C(N)=O` [Compound I-362, 5-((4-((2-acrylamido-4-methylphenyl)amino)-5-(trifluoromethyl)pyrimidin-2-yl)amino)-4-methyl-2-(prop-2-yn-1-yloxy)benzamide], the IC50 at MEK1 activated ERK1 (setting [1]) is greater than 1000 nM. Besides, the “ERK1 Mass Mod (%)” value on Erk1 is on record as “E (provided a mass modification of ≧70%)”.

For `C=CC(=O)Nc1cc(C)ccc1Nc1nc(Nc2nc(O)ncc2C)ncc1C(F)(F)F` [Compound I-364, N-(2-((2-((2-hydroxy-5-methylpyrimidin-4-yl)amino)-5-(trifluoromethyl)pyrimidin-4-yl)amino)-5-methylphenyl)acrylamide], the IC50 at MEK1 activated ERK1 (setting [1]) was less than 100 nM. For the same compound, the “ERK1 Mass Mod (%)” value at Erk1 is “E (provided a mass modification of ≧70%)”.

Turning to `C=CC(=O)Nc1ccccc1Nc1nc(Nc2cc(OC)nc(OC)c2)ncc1C(F)(F)F` [Compound I-95, N-(2-((2-((2,6-Dimethoxypyridin-4-yl)amino)-5-(trifluoromethyl)pyrimidin-4-yl)amino)phenyl)acrylamide], the IC50 on MEK1 activated ERK1 (setting [1]) is less than 100 nM. On Erk1, the “ERK1 Mass Mod (%)” value is given as “E (provided a mass modification of ≧70%)”.

For the compound `CC(=O)N1CCC[C@H](Nc2ncc(C(F)(F)F)c(N[C@@H]3[C@H](C(N)=O)[C@H]4C=C[C@@H]3C4)n2)C1` [Compound I-309, (1R,2R,3S,4S)-3-((2-(((S)-1-acetylpiperidin-3-yl)amino)-5-(trifluoromethyl)pyrimidin-4-yl)amino)bicyclo[2.2.1]hept-5-ene-2-carboxamide], the IC50 at MEK1 activated ERK1 (setting [1]) is greater than 1000 nM. For the same compound, at Erk1, the “ERK1 Mass Mod (%)” value is “G (proived a mass modification ≦30%)”.

As for `C=CC(=O)Nc1cc(C)ccc1Nc1nc(N[C@H]2CCCN(C(=O)CO)C2)ncc1C(F)(F)F` [Compound I-20, (S)—N-(2-((2-((1-(2-Hydroxyacetyl)piperidin-3-yl)amino)-5-(trifluoromethyl)pyrimidin-4-yl)amino)-5-methylphenyl)acrylamide], the IC50 at MEK1 activated ERK1 (setting [1]) is less than 100 nM. In addition, on Erk1, the “ERK1 Mass Mod (%)” value was “E (provided a mass modification of ≧70%)”.

With `C=CC(=O)Nc1cc(OC)ccc1Nc1nc(Nc2cc(OC)nc(N3CCN(CC)CC3)c2)ncc1C(F)(F)F` [Compound I-88, N-(2-((2-((2-(4-Ethylpiperazin-1-yl)-6-methoxypyridin-4-yl)amino)-5-(trifluoromethyl)pyrimidin-4-yl)amino)-5-methoxyphenyl)acrylamide], the IC50 on MEK1 activated ERK1 (setting [1]) was less than 100 nM. At Erk1, the “ERK1 Mass Mod (%)” value is listed as “E (provided a mass modification of ≧70%)”.

For the compound `C=CC(=O)Nc1ccccc1Nc1nc(N[C@H]2CCCN(C(=O)OC(C)(C)C)C2)ncc1Cl` [Compound I-132, (S)-tert-butyl 3-((4-((2-acrylamidophenyl)amino)-5-chloropyrimidin-2-yl)amino) piperidine-1-carboxylate], the IC50 at MEK1 activated ERK1 (setting [1]) was greater than 1000 nM. Also, the “ERK1 Mass Mod (%)” value at Erk1 was “E (provided a mass modification of ≧70%)”.

With `COc1cc(N2CCOCC2)ccc1Nc1ncc(N)c(Nc2ccccc2N)n1` [Compound I-312, N^4-(2-aminophenyl)-N^2-(2-methoxy-4-morpholinophenyl)pyrimidine-2,4,5-triamine], at MEK1 activated ERK1 (setting [1]), the IC50 is greater than 1000 nM. On Erk1, the “ERK1 Mass Mod (%)” value was “G (proived a mass modification ≦30%)”.

For `C=CC(=O)Nc1ccccc1Nc1nc(Nc2ccc(OCCCNC(=O)CCCC(=O)NCCCOCCOCCOCCCNC(=O)CCCC[C@H]3SC[C@H]4NC(=O)N[C@H]43)cc2OC)ncc1Cl` [Compound I-302, N^1-(3-(4-((4-((2-acrylamidophenyl)amino)-5-chloropyrimidin-2-yl)amino)-3-methoxyphenoxy)propyl)-N^5-(15-oxo-19-((3aR,4R,6aS)-2-oxohexahydro-1H-thieno[3,4-d]imidazol-4-yl)-4,7,10-trioxa-14-azanonadecyl)glutaramide], the IC50 on MEK1 activated ERK1 (setting [1]) is greater than 1000 nM. The “ERK1 Mass Mod (%)” value on Erk1 is “E (provided a mass modification of ≧70%)”.

For the compound `C=C(C)S(=O)(=O)Nc1cc(F)ccc1Nc1nc(Nc2cc(C(C)=O)ccc2C)ncc1Cl` [Compound I-243, N-(2-((2-((5-acetyl-2-methylphenyl)amino)-5-chloropyrimidin-4-yl)amino)-5-fluorophenyl)prop-1-ene-2-sulfonamide], the IC50 on MEK1 activated ERK1 (setting [2]) was less than 100 nM. Moreover, the “ERK1 Mass Mod (%)” value at Erk1 is on record as “G (key: E: provided a mass modification of ≧70%; F: provided a mass modification of 31-69%; G: proived a mass modification ≦30%)”.

In the case of `C=CC(=O)Nc1cc(C)ccc1Nc1nc(N[C@@H]2CCN(S(=O)(=O)C=C)C2)ncc1C(F)(F)F` [Compound I-280, (R)—N-(5-Methyl-2-((5-(trifluoromethyl)-2-((1-(vinylsulfonyl)pyrrolidin-3-yl)amino)pyrimidin-4-yl)amino)phenyl)acrylamide], the IC50 on MEK1 activated ERK1 (setting [1]) was greater than 1000 nM. Moreover, the “ERK1 Mass Mod (%)” value at Erk1 was “E (provided a mass modification of ≧70%)”.

Regarding `C=CC(=O)Nc1ccccc1Nc1nc(Nc2cc(OC)nc(N3CCS(=O)(=O)CC3)c2)ncc1C(F)(F)F` [Compound I-291, N-(2-((2-((2-(1,1-Dioxidothiomorpholino)-6-methoxypyridin-4-yl)amino)-5-(trifluoromethyl)pyrimidin-4-yl)amino)phenyl)acrylamide], on MEK1 activated ERK1 (setting [1]), the IC50 is less than 100 nM. For the same compound, the “ERK1 Mass Mod (%)” value on Erk1 is recorded as “E (provided a mass modification of ≧70%)”.

For `C=CC(=O)Nc1ccccc1Nc1nc(N[C@H]2CCCN(S(C)(=O)=O)C2)ncc1Cl` [Compound I-125, (S)—N-(2-((5-chloro-2-((1-(methylsulfonyl)piperidin-3-yl)amino)pyrimidin-4-yl)amino)phenyl)acrylamide], the IC50 at MEK1 activated ERK1 (setting [1]) was less than 100 nM. Further, the “ERK1 Mass Mod (%)” value on Erk1 is “E (provided a mass modification of ≧70%)”.

Regarding `C=CC(=O)Nc1cc(OC)ccc1Nc1nc(Nc2cc(OC)ncc2C)ncc1C(F)(F)F` [Compound I-284, N-(5-Methoxy-2-((2-((2-methoxy-5-methylpyridin-4-yl)amino)-5-(trifluoromethyl)pyrimidin-4-yl)amino)phenyl)acrylamide], the IC50 at MEK1 activated ERK1 (setting [1]) is less than 100 nM. Moreover, the “ERK1 Mass Mod (%)” value at Erk1 is “E (provided a mass modification of ≧70%)”.

In the case of `C=CC(=O)Nc1cc(C)ccc1Nc1nc(N[C@H]2CCCN(C(C)=O)C2)ncc1Cl` [Compound I-139, (S)—N-(2-((2-((1-acetylpiperidin-3-yl)amino)-5-chloropyrimidin-4-yl)amino)-5-methylphenyl)acrylamide], the IC50 on MEK1 activated ERK1 (setting [2]) was less than 100 nM. Further, the “ERK1 Mass Mod (%)” value at Erk1 is “E (key: E: provided a mass modification of ≧70%; F: provided a mass modification of 31-69%; G: proived a mass modification ≦30%)”.

As to `C=CC(=O)Nc1ccccc1Nc1nc(N[C@H]2CCCN(C(=O)C3CC3)C2)ncc1Cl` [Compound I-136, (S)—N-(2-((5-chloro-2-((1-(cyclopropanecarbonyl)piperidin-3-yl)amino)pyrimidin-4-yl)amino)phenyl)acrylamide], the IC50 at MEK1 activated ERK1 (setting [1]) was less than 100 nM. Besides, the “ERK1 Mass Mod (%)” value at Erk1 is “E (provided a mass modification of ≧70%)”.

Consider `C=CC(=O)Nc1cc(C)ccc1Nc1nc(Nc2cc(OC)nc(N3CCC3)c2)ncc1C(F)(F)F` [Compound I-329, N-(2-((2-((2-(azetidin-1-yl)-6-methoxypyridin-4-yl)amino)-5-(trifluoromethyl)pyrimidin-4-yl)amino)-5-methylphenyl)acrylamide], for which the IC50 on MEK1 activated ERK1 (setting [1]) is greater than 1000 nM. Moreover, the “ERK1 Mass Mod (%)” value at Erk1 was “E (provided a mass modification of ≧70%)”.
